Experiments:
Assay in all cases: relative viability (nuclei count vs DMSO), 5 days (fraction); higher = more cells survive
JZL-184 = compound: C1CN(CCC1C(C2=CC3=C(C=C2)OCO3)(C4=CC5=C(C=C4)OCO5)O)C(=O)OC6=CC=C(C=C6)[N+](=O)[O-] [JZL-184]
Procedure, shortened: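 Five library-drug doses, separated by factors of √10, were pinned into 1536-well plates holding lung cancer cell lines after an overnight stay at 37 °C. Cells were fixed, permeabilised and Hoechst-stained in one step after 5 days without medium change, then imaged at 4×. Viability compares treated-well with vehicle-well nuclei, counted in MetaXpress, as a median across plates. Passing plates had control CV below 25% and at least one doubling.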

JZL-184 + Crizotinib = compound: C1CN(CCC1C(C2=CC3=C(C=C2)OCO3)(C4=CC5=C(C=C4)OCO5)O)C(=O)OC6=CC=C(C=C6)[N+](=O)[O-] [JZL-184] + C[C@@H](Oc1cc(-c2cnn(C3CCNCC3)c2)cnc1N)c1c(Cl)ccc(F)c1Cl [Crizotinib] (partner 1 µM)
Procedure, shortened: (§1)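 Relative viability is defined as nuclei in treated wells over nuclei in vehicle wells. Duplicate plates were run and medians reported. Lung cancer cell lines in 1536-well plates were dosed by pin tool one day after seeding, with one drug or with a fixed anchor-drug dose plus five library-drug doses (not always all listed) in √10 steps, and nuclei were counted after 5 days.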

JZL-184 + Alpelisib = compound: C1CN(CCC1C(C2=CC3=C(C=C2)OCO3)(C4=CC5=C(C=C4)OCO5)O)C(=O)OC6=CC=C(C=C6)[N+](=O)[O-] [JZL-184] + Cc1nc(NC(=O)N2CCC[C@H]2C(N)=O)sc1-c1ccnc(C(C)(C)C(F)(F)F)c1 [Alpelisib] (partner 2 µM)
Procedure, shortened: as §1

JZL-184 + Olaparib = compound: C1CN(CCC1C(C2=CC3=C(C=C2)OCO3)(C4=CC5=C(C=C4)OCO5)O)C(=O)OC6=CC=C(C=C6)[N+](=O)[O-] [JZL-184] + O=C(c1cc(Cc2n[nH]c(=O)c3ccccc23)ccc1F)N1CCN(C(=O)C2CC2)CC1 [Olaparib] (partner 8 µM)
Procedure, shortened: as §1

JZL-184 + Dasatinib = compound: C1CN(CCC1C(C2=CC3=C(C=C2)OCO3)(C4=CC5=C(C=C4)OCO5)O)C(=O)OC6=CC=C(C=C6)[N+](=O)[O-] [JZL-184] + Cc1nc(Nc2ncc(C(=O)Nc3c(C)cccc3Cl)s2)cc(N2CCN(CCO)CC2)n1 [Dasatinib] (partner 0.075 µM)
Procedure, shortened: as §1

Row | Cell Line | relative viability (JZL-184; 0.04 µM) | relative viability (JZL-184; 0.4 µM) | relative viability (JZL-184; 1.265 µM) | relative viability (JZL-184; 4 µM) | relative viability (JZL-184 + Crizotinib; first compound 0.04 µM) | relative viability (JZL-184 + Crizotinib; first compound 0.4 µM) | relative viability (JZL-184 + Crizotinib; first compound 1.265 µM) | relative viability (JZL-184 + Crizotinib; first compound 4 µM) | relative viability (JZL-184 + Alpelisib; first compound 0.04 µM) | relative viability (JZL-184 + Alpelisib; first compound 0.4 µM) | relative viability (JZL-184 + Alpelisib; first compound 1.265 µM) | relative viability (JZL-184 + Alpelisib; first compound 4 µM) | relative viability (JZL-184 + Olaparib; first compound 0.04 µM) | relative viability (JZL-184 + Olaparib; first compound 0.4 µM) | relative viability (JZL-184 + Olaparib; first compound 1.265 µM) | relative viability (JZL-184 + Olaparib; first compound 4 µM) | relative viability (JZL-184 + Dasatinib; first compound 0.04 µM) | relative viability (JZL-184 + Dasatinib; first compound 0.4 µM) | relative viability (JZL-184 + Dasatinib; first compound 1.265 µM) | relative viability (JZL-184 + Dasatinib; first compound 4 µM)
1 | HCC-44 | 1.05 | 0.923 | 1.06 | 0.983 | 0.815 | 0.78 | 0.815 | 0.783 | 0.671 | 0.8 | 0.749 | 0.74 | 1.04 | 0.98 | 0.97 | 0.928 |  |  |  | 
2 | HCC-78 | 0.793 | 0.806 | 1.13 | 1.01 | 0.34 | 0.317 | 0.359 | 0.341 | 0.325 | 0.317 | 0.375 | 0.315 | 0.823 |  | 0.831 | 0.768 | 0.276 | 0.359 | 0.391 | 0.301
3 | HCC-366 | 1.09 | 0.958 | 1.06 | 1.02 | 0.827 | 0.443 | 0.526 | 0.5 | 0.355 | 0.436 | 0.506 | 0.358 | 0.361 | 0.353 | 0.302 | 0.36 | 0.892 | 0.64 | 0.61 | 0.638
4 | HCC-827 | 1.02 | 0.989 | 1.02 | 1.04 | 0.918 | 0.888 | 0.977 | 0.854 | 0.724 | 0.927 | 0.981 | 0.952 | 0.556 | 0.607 | 0.718 | 0.627 | 0.328 | 0.31 | 0.34 | 0.305
5 | HOP-62 | 1.08 | 1.01 | 1.04 | 1.01 | 1.01 | 0.905 | 1.05 | 0.839 | 1.13 | 1.05 | 1.05 | 0.96 | 0.49 | 0.328 | 0.529 | 0.507 | 0.561 | 0.679 | 0.659 | 0.631
6 | IA-LM | 1.31 | 0.879 | 1.03 | 1 | 0.988 | 0.467 | 0.74 | 0.9 | 0.991 | 0.526 | 0.886 | 0.744 | 0.987 | 0.737 | 0.827 | 0.82 |  |  |  | 
7 | LC-2-ad | 1.18 | 0.96 | 1.13 | 0.982 | 0.695 | 0.454 | 0.481 | 0.42 | 0.858 | 0.822 | 0.95 | 0.839 | 0.79 | 0.682 | 0.696 | 0.686 | 0.815 | 0.496 | 0.815 | 0.463
8 | LCLC-97TM1 | 1.13 | 0.852 | 1.05 | 0.84 | 0.574 |  | 0.505 | 0.271 | 0.242 |  | 0.252 | 0.295 | 0.437 | 0.374 | 0.371 | 0.385 | 0.903 | 0.778 | 0.911 | 0.763
9 | LCLC-103H | 0.956 | 0.988 | 1.04 | 0.986 | 1.02 | 0.959 | 1.02 | 1 | 1.03 | 0.867 | 1.05 | 0.981 | 0.829 | 0.767 | 0.765 | 0.763 | 0.45 | 0.557 | 0.489 | 0.392
10 | LK-2 | 1.13 | 0.928 | 1.21 | 0.944 | 0.223 | 0.232 | 0.211 | 0.22 | 1.55 | 1.14 | 1.06 | 1.06 | 0.777 | 0.661 | 0.939 | 0.835 | 0.379 | 0.364 | 0.295 | 0.325
11 | LOU-NH91 | 1.02 | 0.879 | 0.984 | 0.945 | 0.757 | 0.738 | 0.771 | 0.769 | 0.778 | 0.728 | 0.745 | 0.711 | 1 | 0.902 | 0.957 | 0.889 | 0.612 | 0.544 | 0.605 | 0.567
12 | NCI-H522 | 1.24 | 0.896 | 1.05 | 0.901 |  |  |  |  |  |  |  |  | 0.709 | 0.62 | 0.648 | 0.574 | 0.967 | 0.821 | 0.842 | 0.946
13 | NCI-H1395 | 0.862 | 0.84 | 1.03 | 0.816 |  |  |  |  | 0.993 | 1.01 | 1.1 | 1.04 | 0.486 | 0.458 | 0.407 | 0.444 | 0.424 | 0.435 | 0.414 | 0.404
14 | NCI-H1650 | 1.07 | 0.895 | 1.16 | 0.915 | 1.28 | 0.995 | 1.01 | 0.893 |  |  |  |  | 0.867 | 0.72 | 0.87 | 0.74 | 0.306 | 0.297 | 0.388 | 0.296
15 | NCI-H1793 | 0.771 | 0.735 | 1.1 | 0.845 |  |  |  |  | 0.689 | 0.706 | 0.77 | 0.691 | 0.978 | 0.911 | 0.933 | 0.861 | 0.511 | 0.36 | 0.41 | 0.369
16 | NCI-H2342 | 0.851 | 0.878 | 1.03 | 1.02 |  |  |  |  |  |  |  |  | 0.416 | 0.4 | 0.383 | 0.543 | 0.317 | 0.293 | 0.282 | 0.368
17 | SW 900 | 1.08 | 0.698 | 0.958 | 0.882 |  |  |  |  |  |  |  |  | 0.966 | 0.858 | 0.844 | 0.898 | 0.543 | 0.619 | 0.661 | 0.509

Source: the supplement of paper PMC10307832
